Literature values as cited in patent publication US20230138262A1, “FAST-DISINTEGRATING SOLID HERBICIDE COMPOSITION AND THE USE THEREOF” (Rotam Agrochem International Company Limited, priority 2021, published 2023).

Experiments:
corn = settings: in vivo

Cc1c(C(=O)c2cnn(C)c2O)ccc(S(C)(=O)=O)c1C1=NOCC1 [Topramezone]
Time to appearance of albino toxication symptoms in overground part of weeds after application (sensitive weeds; after application): 2 to 5 days
Time from application to death of weeds (sensitive weeds; depending on weather and environment): 10 to 15 days
Safety to corn (corn): safe to corn
